Like-named read-outs stand apart in the source and are kept apart here.
Legend:
[1] = target: T1, recombinant human dopamine D2L receptors (Homo sapiens, UniProt P14416); assay: Dopamine Binding Assay; conditions: HEK-D2L cell membranes, 150 pM [3H]-spiperone, Cheng and Prusoff
T1 construct: expressed in transfected cells; host or cells: HEK-293 (HEK-D2L), membrane homogenates
Method in brief: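 Competition binding on HEK-293 membranes stably expressing human D2L (~5 μg protein) with 150 pM [3H]-spiperone, 1.5 h at 22 °C in 50 mM Tris pH 7.4, 1 mM EDTA, 6 mM MgCl2. Filtration read-out; non-specific binding defined with 2 μM (+)butaclamol, Ki by Cheng-Prusoff.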

[2] = target: T2, human serotonin transporters (Homo sapiens, UniProt P31645); assay: Serotonin Transporter Binding Assay; conditions: HEK-hSERT cell membranes, 1 nM [3H]-citalopram, Cheng and Prusoff
T2 construct: expressed in transfected cells; host or cells: HEK-293 (HEK-hSERT), membrane homogenates
Method in brief: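 Displacement of 1 nM [^3H]-citalopram (1 hr, 25° C, Tris pH 7.4 with NaCl/KCl) from membranes of HEK-293 cells stably expressing human SERT, with bound ligand read after filtration. 10 μM fluoxetine defined non-specific binding. Ki values were derived via Cheng–Prusoff from IC50 displacement-curve midpoints.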

T1 sequence (P14416 whole entry): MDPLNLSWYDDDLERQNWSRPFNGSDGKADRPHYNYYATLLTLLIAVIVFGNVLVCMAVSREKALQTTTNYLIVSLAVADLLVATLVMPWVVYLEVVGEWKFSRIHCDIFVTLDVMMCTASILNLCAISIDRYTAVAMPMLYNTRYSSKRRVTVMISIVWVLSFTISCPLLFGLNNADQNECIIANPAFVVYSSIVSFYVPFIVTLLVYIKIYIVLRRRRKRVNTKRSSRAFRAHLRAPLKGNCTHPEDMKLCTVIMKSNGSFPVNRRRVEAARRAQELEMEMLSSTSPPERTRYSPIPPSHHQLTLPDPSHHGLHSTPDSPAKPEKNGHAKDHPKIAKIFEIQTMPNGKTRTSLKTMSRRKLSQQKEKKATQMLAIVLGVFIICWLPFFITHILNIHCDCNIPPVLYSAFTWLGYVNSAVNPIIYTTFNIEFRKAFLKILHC
T2 sequence (P31645 whole entry): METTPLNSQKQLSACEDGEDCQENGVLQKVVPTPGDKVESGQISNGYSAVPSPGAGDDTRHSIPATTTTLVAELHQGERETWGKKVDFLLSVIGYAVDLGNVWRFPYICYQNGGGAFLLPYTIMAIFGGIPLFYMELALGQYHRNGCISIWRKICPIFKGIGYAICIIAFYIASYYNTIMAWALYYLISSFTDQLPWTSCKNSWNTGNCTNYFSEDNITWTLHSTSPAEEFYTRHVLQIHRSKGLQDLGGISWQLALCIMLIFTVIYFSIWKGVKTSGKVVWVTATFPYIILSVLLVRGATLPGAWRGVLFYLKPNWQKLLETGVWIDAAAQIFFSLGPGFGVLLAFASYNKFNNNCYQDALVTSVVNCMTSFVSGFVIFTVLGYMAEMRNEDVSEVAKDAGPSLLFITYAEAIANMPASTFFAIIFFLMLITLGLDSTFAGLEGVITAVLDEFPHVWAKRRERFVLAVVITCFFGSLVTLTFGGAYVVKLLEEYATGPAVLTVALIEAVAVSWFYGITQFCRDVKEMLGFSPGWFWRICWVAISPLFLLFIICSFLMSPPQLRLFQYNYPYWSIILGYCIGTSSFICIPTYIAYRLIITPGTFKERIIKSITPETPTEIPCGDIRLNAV

Ki ([2]; read-out: SERT Ki) | SMILES | Ki [1] | Ki ([2]; SERT Ki (nM))
10 to 100 nM | CCN(CCCNC(=O)OC(C)C)C[C@@H]1C[C@H]1c1c[nH]c2ccc(F)cc12 (relative stereo) [Example 115, trans-1-[N,N-Ethyl-2-amino(isopropylcarbamoyl)propylaminomethyl]-2-[5-fluoroindol-3-yl]-cyclopropane] | 100 to 1000 nM | –
– | Fc1ccc2[nH]cc([C@@H]3C[C@@H]3CN3CCCC3)c2c1 (relative stereo) [Example 185, cis-1-(1-pyrrolidino)-2-[5-fluoroindol-3-yl]-cyclopropane] | > 1000 nM | 10 to 100 nM
– | CN(C)CC1CC1c1c[nH]c2ccc(C#N)cc12 (single isomer, unassigned) [Example 117, Cis-2-[5-Cyanoindol-3-yl]-1-(N,N-dimethylaminomethyl)cyclopropane] | > 1000 nM | 1 to 10 nM
– | CN(C)CC1CC1c1c[nH]c2ccc(F)cc12 (single isomer, unassigned) [Example 118, Cis-2-[5-Fluoroindol-3-yl]-1-(N,N-dimethylaminomethyl)cyclopropane] | > 1000 nM | 10 to 100 nM
– | CC([C@@H]1C[C@H]1c1c[nH]c2ccc(C#N)cc12)N(C)C (single isomer, unassigned) [Example 122A, trans-3-[2-(1-Dimethylamino-ethyl)-cyclopropyl]-1H-indole-5-carbonitrile] | > 1000 nM | < 1 nM
– | CC([C@@H]1C[C@H]1c1c[nH]c2ccc(C#N)cc12)N(C)C (single isomer, unassigned) [Example 122B, trans-3-[2-(1-Dimethylamino-ethyl)-cyclopropyl]-1H-indole-5-carbonitrile] | > 1000 nM | 1 to 10 nM
– | CN(C)CC1CC1c1c[nH]c2ccc(C#N)cc12 (single isomer, unassigned) [Example 129a, Cis-2-[5-Cyanoindol-3-yl]-1-(N,N-dimethylaminomethyl)cyclopropane] | > 1000 nM | 10 to 100 nM
– | CN(C)CC1CC1c1c[nH]c2ccc(C#N)cc12 (single isomer, unassigned) [Example 129b, Cis-2-[5-Cyanoindol-3-yl]-1-(N,N-dimethylaminomethyl)cyclopropane] | > 1000 nM | 1 to 10 nM
– | CN(C)CC1CC1c1c[nH]c2ccc(F)cc12 (single isomer, unassigned) [Example 130a, Cis-2-[5-Fluoroindol-3-yl]-1-(N,N-dimethylaminomethyl)cyclopropane] | > 1000 nM | 100 to 1000 nM
– | CN(C)CC1CC1c1c[nH]c2ccc(F)cc12 (single isomer, unassigned) [Example 130b, Cis-2-[5-Fluoroindol-3-yl]-1-(N,N-dimethylaminomethyl)cyclopropane] | > 1000 nM | 1 to 10 nM
10 to 100 nM | CN(C)CC1CC1c1csc2ccccc12 (single isomer, unassigned; (+)) [Example 190B, (+)-(2-Benzo[b]thiophen-3-yl-cyclopropylmethyl)-dimethyl-amine] | > 1000 nM | –
– | CN(C)C[C@H]1C[C@@H]1c1c[nH]c2ccc(C#N)cc12 [Example 5, (1S,2S)-trans-2-[5-cyanoindol-3-yl]-1-(N,N-dimethylaminomethyl)-cyclopropane] | > 1000 nM | < 1 nM
1 to 10 nM | N#Cc1ccc2[nH]cc(C3CC3CNCc3cccc(F)c3)c2c1 (stereo not drawn) [Example 12, trans-2-[5-Cyanoindol-3-yl]-1-[N-(3-fluorobenzyl)aminomethyl]-cyclopropane] | 100 to 1000 nM | –
1 to 10 nM | N#Cc1ccc2[nH]cc(C3CC3CNCc3ccc(F)cc3)c2c1 (stereo not drawn) [Example 13, trans-2-[5-Cyanoindol-3-yl]-1-[N-(4-fluorobenzyl)aminomethyl]-cyclopropane] | 100 to 1000 nM | –
10 to 100 nM | N#Cc1ccc2[nH]cc(C3CC3CNCc3ccccn3)c2c1 (stereo not drawn) [Example 14, trans-2-[5-Cyanoindol-3-yl]-1-[N-(2-pyridylmethyl)aminomethyl]-cyclopropane] | 100 to 1000 nM | –
10 to 100 nM | N#Cc1ccc2[nH]cc(C3CC3CNCc3cccnc3)c2c1 (stereo not drawn) [Example 15, trans-2-[5-Cyanoindol-3-yl]-1-[N-(3-pyridyl)methylaminomethyl]-cyclopropane] | 100 to 1000 nM | –
10 to 100 nM | N#Cc1ccc2[nH]cc(C3CC3CNCc3ccncc3)c2c1 (stereo not drawn) [Example 16, trans-2-[5-Cyanoindol-3-yl]-1-[N-(4-pyridyl)methylaminomethyl]-cyclopropane] | 100 to 1000 nM | –
1 to 10 nM | N#Cc1ccc2[nH]cc(C3CC3CNCCCc3ccccc3)c2c1 (stereo not drawn) [Example 21, trans-2-[5-Cyanoindol-3-yl]-1-[N-3-phenylpropylaminomethyl]-cyclopropane] | 10 to 100 nM | –
1 to 10 nM | N#Cc1ccc2[nH]cc(C3CC3CNCCCc3cccnc3)c2c1 (stereo not drawn) [Example 22, trans-2-[5-Cyanoindol-3-yl]-1-[N-3-(3-pyridyl)propylaminomethyl]-cyclopropane] | 100 to 1000 nM | –
10 to 100 nM | N#Cc1ccc2[nH]cc(C3CC3CNCCCn3ccnc3)c2c1 (stereo not drawn) [Example 24, trans-2-[5-Cyanoindol-3-yl]-1-[N-3-(1-imidazolyl)propylaminomethyl]-cyclopropane] | 100 to 1000 nM | –
1 to 10 nM | N#Cc1ccc2[nH]cc(C3CC3CNCCc3cccs3)c2c1 (stereo not drawn) [Example 26, trans-2-[5-Cyanoindol-3-yl]-1-[N-2-(2-thiopheneyl)ethylaminomethyl]-cyclopropane] | 10 to 100 nM | –
– | N#Cc1ccc2[nH]cc(C3CC3CNCC3CC3)c2c1 (stereo not drawn) [Example 28, trans-2-[5-Cyanoindol-3-yl]-1-[N-cyclopropylmethylaminomethyl]-cyclopropane] | > 1000 nM | 10 to 100 nM
1 to 10 nM | N#Cc1ccc2[nH]cc(C3CC3CNCC3CCCCC3)c2c1 (stereo not drawn) [Example 30, trans-2-[5-Cyanoindol-3-yl]-1-[N-cyclohexylmethylaminomethyl]-cyclopropane] | 10 to 100 nM | –
1 to 10 nM | N#Cc1ccc2[nH]cc(C3CC3CN3CCC(Cc4ccccc4)CC3)c2c1 (stereo not drawn) [Example 34, trans-1-(4-Benzyl-piperidin-1-ylmethyl)-2-[5-cyanoindol-3-yl]-cyclopropane] | 1 to 10 nM | –
– | N#Cc1ccc2[nH]cc(C3CC3CN3CCNCC3)c2c1 (stereo not drawn) [Example 35, trans-2-[5-Cyanoindol-3-yl]-1-(piperazin-1-yl-methyl)-cyclopropane] | > 1000 nM | 1 to 10 nM
10 to 100 nM | N#Cc1ccc2[nH]cc(C3CC3CN3CCN(Cc4ccccc4)CC3)c2c1 (stereo not drawn) [Example 36, trans-1-[4-Benzyl-piperazin-1-yl-methyl]-2-[5-cyanoindol-3-yl]-cyclopropane] | 10 to 100 nM | –
– | CCCN(CCC)CC1CC1c1c[nH]c2ccc(C#N)cc12 (stereo not drawn) [Example 38, trans-2-[5-Cyanoindol-3-yl]-1-[N,N-dipropylaminomethyl]-cyclopropane] | > 1000 nM | 1 to 10 nM
1 to 10 nM | COc1ccccc1CNCC1CC1c1c[nH]c2ccc(F)cc12 (stereo not drawn) [Example 50, trans-2-[5-Fluoroindol-3-yl]-1-[N-(2-methoxybenzyl)aminomethyl]-cyclopropane] | 10 to 100 nM | –
1 to 10 nM | COc1cccc(CNCC2CC2c2c[nH]c3ccc(F)cc23)c1 (stereo not drawn) [Example 51, trans-2-[5-Fluoroindol-3-yl]-1-[N-(3-methoxybenzyl)aminomethyl]-cyclopropane] | 100 to 1000 nM | –

SMILES | Ki ([2]; read-out: SERT Ki) | Ki [1] | Ki ([2]; SERT Ki (nM))
N#Cc1ccc2[nH]cc([C@@H]3C[C@H]3CCCN3CCCC3)c2c1 (relative stereo) [Example 179, Trans-2-[5-cyanoindol-3-yl]-1-(3-(1-pyrrolidino)propyl)cyclopropane] | 10 to 100 nM | 100 to 1000 nM | –
CN(C)C[C@@H]1C[C@H]1Cc1c[nH]c2ccc(F)cc12 (single isomer, unassigned) [Example 148, (+)-[2-(5-Fluoro-1H-indol-3-ylmethyl)-cyclopropylmethyl]-dimethylamine] | 10 to 100 nM | 100 to 1000 nM | –
CN(C)C[C@@H]1C[C@H]1Cc1c[nH]c2ccc(F)cc12 (single isomer, unassigned) [Example 149, (−)-[2-(5-Fluoro-1H-indol-3-ylmethyl)-cyclopropylmethyl]-dimethylamine] | 1 to 10 nM | 100 to 1000 nM | –
CC(C)CNCC1CC1c1c[nH]c2ccc(C#N)cc12 (stereo not drawn) [Example 31, trans-2-[5-Cyanoindol-3-yl]-1-[N-isobutylaminomethyl]-cyclopropane] | 10 to 100 nM | 10 to 100 nM | –
CC(C)CCNCC1CC1c1c[nH]c2ccc(C#N)cc12 (stereo not drawn) [Example 32, trans-2-[5-Cyanoindol-3-yl]-1-[N-3-methyl-butylaminomethyl]-cyclopropane] | 10 to 100 nM | 10 to 100 nM | –
CC1CCN(CC2CC2c2c[nH]c3ccc(C#N)cc23)CC1 (stereo not drawn) [Example 33, trans-2-[5-Cyanoindol-3-yl]-1-(4-methyl-piperidin-1-yl-methyl)-cyclopropane] | 10 to 100 nM | 100 to 1000 nM | –
N#Cc1ccc2[nH]cc(C3CC3CN3CCCC3)c2c1 (stereo not drawn) [Example 46, trans-2-[5-Cyanoindol-3-yl]-1-[pyrrolidin-1-yl-methyl]-cyclopropane] | 1 to 10 nM | 100 to 1000 nM | –
N#Cc1ccc2[nH]cc(C3CC3CN3CCCCC3)c2c1 (stereo not drawn) [Example 47, trans-2-[5-Cyanoindol-3-yl]-1-[piperidin-1-yl-methyl]-cyclopropane] | 10 to 100 nM | 100 to 1000 nM | –

— patent publication US6822100B2 (Bristol-Myers Squibb Company, priority 2001, dated 2004)
